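Briefly, cells in 96-well plates were exposed to five compound concentrations for 48 h, and endpoints were estimated by linear interpolation. Abbreviation: GI50, concentration required for 50% inhibition of growth.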 Calls of active or inactive are those of the source. Cut-off read from the data, not from the text of the source: active = GI50 up to about 1.1 µM and inactive = higher. Where a SMILES comes first, the peptide text is derived from it. The star is where a group is joined. Boc = CC(C)(C)OC(=O)*
What was measured:
Test in all cases: NCI-60 cell line screen, 48 h
786-0 = system: 786-0
A498 = system: A498
A549 = system: A549
BT-549 = system: BT-549
CAKI-1 = system: CAKI-1
CCRF-CEM = system: CCRF-CEM
COLO 205 = system: COLO 205
DU-145 = system: DU-145
EKVX = system: EKVX
HCC 2998 = system: HCC 2998
HCT-116 = system: HCT-116
HCT-15 = system: HCT-15
HL-60 = system: HL-60
HT-29 = system: HT-29
Hs-578T = system: Hs-578T
IGROV-1 = system: IGROV-1
K562 = system: K562
KM12 = system: KM12
LOX IMVI = system: LOX IMVI
M14 = system: M14
MCF7 = system: MCF7
MDA-MB-231 = system: MDA-MB-231
MDA-MB-435 = system: MDA-MB-435
MOLT-4 = system: MOLT-4
Malme-3M = system: Malme-3M
NCI-H226 = system: NCI-H226
NCI-H23 = system: NCI-H23
NCI-H460 = system: NCI-H460
NCI-H522 = system: NCI-H522
NCI/ADR-RES = system: NCI/ADR-RES
OVCAR-3 = system: OVCAR-3
OVCAR-4 = system: OVCAR-4
OVCAR-5 = system: OVCAR-5
OVCAR-8 = system: OVCAR-8
PC-3 = system: PC-3
RPMI-8226 = system: RPMI-8226
RXF 393 = system: RXF 393
SF-268 = system: SF-268
SF-539 = system: SF-539
SK-MEL-28 = system: SK-MEL-28
SK-MEL-2 = system: SK-MEL-2
SK-MEL-5 = system: SK-MEL-5
SK-OV-3 = system: SK-OV-3
SN12C = system: SN12C
SNB-19 = system: SNB-19
SNB-75 = system: SNB-75
SR = system: SR
SW-620 = system: SW-620
T47D = system: T47D
TK-10 = system: TK-10
U-251 = system: U-251
UACC-257 = system: UACC-257
UACC-62 = system: UACC-62
UO-31 = system: UO-31
HOP-62 = system: HOP-62
MDA-N = system: MDA-N
ACHN = system: ACHN
HOP-92 = system: HOP-92
SF-295 = system: SF-295

CSc1c(C#N)c(O)n(-c2ccc(C)cc2)c(=O)c1C(C)=O
GI50 (786-0): > 100 µM (inactive) | GI50 (A498): 51.5 µM (inactive) | GI50 (A549): > 100 µM (inactive) | GI50 (BT-549): > 100 µM (inactive) | GI50 (CAKI-1): > 100 µM (inactive) | GI50 (CCRF-CEM): > 100 µM (inactive) | GI50 (COLO 205): > 100 µM (inactive) | GI50 (DU-145): > 100 µM (inactive) | GI50 (EKVX): > 100 µM (inactive) | GI50 (HCC 2998): > 100 µM (inactive) | GI50 (HCT-116): > 100 µM (inactive) | GI50 (HCT-15): > 100 µM | GI50 (HL-60): > 100 µM (inactive) | GI50 (HT-29): > 100 µM (inactive) | GI50 (Hs-578T): > 100 µM (inactive) | GI50 (IGROV-1): > 100 µM (inactive) | GI50 (K562): > 100 µM (inactive) | GI50 (KM12): > 100 µM (inactive) | GI50 (LOX IMVI): > 100 µM (inactive) | GI50 (M14): 94.6 µM (inactive) | GI50 (MCF7): > 100 µM (inactive) | GI50 (MDA-MB-231): > 100 µM (inactive) | GI50 (MDA-MB-435): > 100 µM (inactive) | GI50 (MOLT-4): > 100 µM (inactive) | GI50 (Malme-3M): > 100 µM (inactive) | GI50 (NCI-H226): > 100 µM (inactive) | GI50 (NCI-H23): > 100 µM (inactive) | GI50 (NCI-H460): > 100 µM (inactive) | GI50 (NCI-H522): 57.5 µM (inactive) | GI50 (NCI/ADR-RES): > 100 µM (inactive) | GI50 (OVCAR-3): > 100 µM (inactive) | GI50 (OVCAR-4): > 100 µM (inactive) | GI50 (OVCAR-5): 42.8 µM (inactive) | GI50 (OVCAR-8): > 100 µM (inactive) | GI50 (PC-3): > 100 µM (inactive) | GI50 (RPMI-8226): > 100 µM (inactive) | GI50 (RXF 393): > 100 µM (inactive) | GI50 (SF-268): > 100 µM (inactive) | GI50 (SF-539): > 100 µM (inactive) | GI50 (SK-MEL-28): > 100 µM (inactive) | GI50 (SK-MEL-2): > 100 µM (inactive) | GI50 (SK-MEL-5): > 100 µM (inactive) | GI50 (SK-OV-3): > 100 µM (inactive) | GI50 (SN12C): > 100 µM (inactive) | GI50 (SNB-19): > 100 µM (inactive) | GI50 (SNB-75): > 100 µM (inactive) | GI50 (SR): > 100 µM (inactive) | GI50 (SW-620): > 100 µM (inactive) | GI50 (T47D): > 100 µM (inactive) | GI50 (TK-10): > 100 µM (inactive) | GI50 (U-251): > 100 µM (inactive) | GI50 (UACC-257): > 100 µM (inactive) | GI50 (UACC-62): > 100 µM (inactive) | GI50 (UO-31): 88.7 µM (inactive)

CCN(CC)CCNc1n[n+]([O-])c2cc([N+](=O)[O-])ccc2[n+]1[O-]
GI50 (A498): 1.9 µM (inactive) | GI50 (A549): 0.454 µM (active) | GI50 (BT-549): 1.19 µM (inactive) | GI50 (CAKI-1): 0.205 µM (active) | GI50 (COLO 205): 0.326 µM (active) | GI50 (EKVX): 1.94 µM (inactive) | GI50 (HCT-116): 0.3 µM (active) | GI50 (HOP-62): 0.434 µM (active) | GI50 (HT-29): 0.197 µM (active) | GI50 (Hs-578T): 3.25 µM (inactive) | GI50 (IGROV-1): 0.116 µM (active) | GI50 (KM12): 0.504 µM (active) | GI50 (LOX IMVI): 0.444 µM (active) | GI50 (M14): 0.377 µM (active) | GI50 (MDA-MB-435): 0.847 µM (active) | GI50 (MDA-N): 0.452 µM (active) | GI50 (NCI-H226): 1.83 µM (inactive) | GI50 (NCI/ADR-RES): 0.979 µM (active) | GI50 (OVCAR-3): 0.865 µM (active) | GI50 (OVCAR-4): 1 µM (active) | GI50 (OVCAR-5): 2.04 µM (inactive) | GI50 (OVCAR-8): 0.283 µM (active) | GI50 (RXF 393): 0.809 µM (active) | GI50 (SF-268): 0.568 µM (active) | GI50 (SK-MEL-28): 3.41 µM (inactive) | GI50 (SK-MEL-5): 0.429 µM (active) | GI50 (SK-OV-3): 0.687 µM (active) | GI50 (SNB-19): 1.19 µM (inactive) | GI50 (U-251): 0.603 µM (active) | GI50 (UO-31): 1.84 µM (inactive)

COC(=O)/C1=C/C=C\C[C@@]2(C)CC(c3ccoc3)OC(=O)[C@@H]2CC[C@H]1C (stereo not given in full)
GI50 (786-0): > 25 µM (inactive) | GI50 (A498): > 25 µM (inactive) | GI50 (A549): > 25 µM (inactive) | GI50 (ACHN): > 25 µM (inactive) | GI50 (BT-549): > 25 µM (inactive) | GI50 (CAKI-1): > 25 µM (inactive) | GI50 (CCRF-CEM): > 25 µM (inactive) | GI50 (COLO 205): > 25 µM (inactive) | GI50 (EKVX): > 25 µM (inactive) | GI50 (HCC 2998): > 25 µM (inactive) | GI50 (HCT-116): > 25 µM (inactive) | GI50 (HCT-15): > 25 µM | GI50 (HL-60): 7.23 µM (inactive) | GI50 (HOP-62): > 25 µM (inactive) | GI50 (HOP-92): > 25 µM (inactive) | GI50 (HT-29): > 25 µM (inactive) | GI50 (Hs-578T): > 25 µM (inactive) | GI50 (IGROV-1): > 25 µM (inactive) | GI50 (K562): > 25 µM (inactive) | GI50 (KM12): > 25 µM (inactive) | GI50 (LOX IMVI): > 25 µM (inactive) | GI50 (M14): > 25 µM (inactive) | GI50 (MCF7): > 25 µM (inactive) | GI50 (MDA-MB-231): > 25 µM (inactive) | GI50 (MDA-N): > 25 µM (inactive) | GI50 (MOLT-4): > 25 µM (inactive) | GI50 (Malme-3M): > 25 µM (inactive) | GI50 (NCI-H226): > 25 µM (inactive) | GI50 (NCI-H23): > 25 µM (inactive) | GI50 (NCI-H460): > 25 µM (inactive) | GI50 (NCI/ADR-RES): > 25 µM (inactive) | GI50 (OVCAR-3): > 25 µM (inactive) | GI50 (OVCAR-4): > 25 µM (inactive) | GI50 (OVCAR-5): > 25 µM (inactive) | GI50 (OVCAR-8): > 25 µM (inactive) | GI50 (PC-3): > 25 µM (inactive) | GI50 (RXF 393): > 25 µM (inactive) | GI50 (SF-295): > 25 µM (inactive) | GI50 (SF-539): > 25 µM (inactive) | GI50 (SK-MEL-28): > 25 µM (inactive) | GI50 (SK-MEL-2): > 25 µM (inactive) | GI50 (SK-MEL-5): > 25 µM (inactive) | GI50 (SK-OV-3): > 25 µM (inactive) | GI50 (SN12C): > 25 µM (inactive) | GI50 (SNB-19): > 25 µM (inactive) | GI50 (SNB-75): > 25 µM (inactive) | GI50 (SR): > 25 µM (inactive) | GI50 (SW-620): > 25 µM (inactive) | GI50 (TK-10): > 25 µM (inactive) | GI50 (U-251): > 25 µM (inactive) | GI50 (UACC-257): > 25 µM (inactive) | GI50 (UACC-62): > 25 µM (inactive) | GI50 (UO-31): > 25 µM (inactive)

COC(=O)[C@H](Cc1ccc(O)cc1)NC(=O)[C@H](Cc1ccc(O)cc1)NC(=O)OC(C)(C)C (Boc-Tyr-Tyr-OMe)
GI50 (786-0): > 100 µM (inactive) | GI50 (A549): > 100 µM (inactive) | GI50 (ACHN): > 100 µM (inactive) | GI50 (BT-549): > 100 µM (inactive) | GI50 (CAKI-1): > 100 µM (inactive) | GI50 (COLO 205): 37.2 µM (inactive) | GI50 (DU-145): > 100 µM (inactive) | GI50 (EKVX): > 100 µM (inactive) | GI50 (HCC 2998): 39.4 µM (inactive) | GI50 (HCT-116): > 100 µM (inactive) | GI50 (HCT-15): > 100 µM | GI50 (HOP-62): > 100 µM (inactive) | GI50 (HT-29): > 100 µM (inactive) | GI50 (Hs-578T): > 100 µM (inactive) | GI50 (IGROV-1): 56.6 µM (inactive) | GI50 (KM12): > 100 µM (inactive) | GI50 (LOX IMVI): > 100 µM (inactive) | GI50 (M14): > 100 µM (inactive) | GI50 (MCF7): 43.8 µM (inactive) | GI50 (MDA-MB-231): 60 µM (inactive) | GI50 (MDA-N): > 100 µM (inactive) | GI50 (Malme-3M): > 100 µM (inactive) | GI50 (NCI-H226): > 100 µM (inactive) | GI50 (NCI-H23): > 100 µM (inactive) | GI50 (NCI-H460): > 100 µM (inactive) | GI50 (NCI-H522): 28 µM (inactive) | GI50 (NCI/ADR-RES): > 100 µM (inactive) | GI50 (OVCAR-3): 72.3 µM (inactive) | GI50 (OVCAR-5): > 100 µM (inactive) | GI50 (OVCAR-8): 66.4 µM (inactive) | GI50 (PC-3): > 100 µM (inactive) | GI50 (RXF 393): 49.7 µM (inactive) | GI50 (SF-268): > 100 µM (inactive) | GI50 (SF-295): > 100 µM (inactive) | GI50 (SF-539): 82.2 µM (inactive) | GI50 (SK-MEL-5): 38 µM (inactive) | GI50 (SK-OV-3): > 100 µM (inactive) | GI50 (SNB-19): > 100 µM (inactive) | GI50 (SNB-75): > 100 µM (inactive) | GI50 (TK-10): > 100 µM (inactive) | GI50 (UACC-257): > 100 µM (inactive) | GI50 (UACC-62): > 100 µM (inactive) | GI50 (UO-31): > 100 µM (inactive)

From ChEMBL document CHEMBL1201862, “PubChem BioAssay data set” (2004)
